The text below walks through data of patent publication US9517994B2, “Antibacterial agents: phloroglucinol derivatives” (Rutgers, the State University of New Jersey, priority 2012, dated 2016).

Molecules are shown by their SMILES. Converted amounts (≈) assume the structure as drawn.

Assay [1] concerns the target E. coli RNA polymerase σ70 holoenzyme (Escherichia coli, UniProt P0A8T7+P0A8V2). Nature of the assay: Fluorescence-detected assay of inhibition of Escherichia coli RNA polymerase. The conditions noted are these: RiboGreen fluorescence, read-out: IC50 Ec RNAP. It is filed as biochemical. The method, then:
(§1) Fluorescence-detected RNA polymerase assays with E. coli RNA polymerase were performed by a modification of the procedure of Kuhlman et al., 2004 (Kuhlman, P., Duff, H. & Galant, A. (2004) Anal. Biochem. 324, 183-190). Reaction mixtures contained (20 μl): 0-100 nM test compound, 75 nM E. coli RNA polymerase σ^70 holoenzyme, 20 nM 384 by DNA fragment containing the bacteriophage T4 N25 promoter, 100 μM ATP, 100 μM GTP, 100 μM UTP, 100 μM CTP, 50 mM Tris-HCl, pH 8.0, 100 mM KCl, 10 mM MgCl2, 1 mM DTT, 10 μg/ml bovine serum albumin, and 5.5% glycerol. Reaction components other than DNA and NTPs were pre-incubated for 10 mm at 37° C. Reactions were carried out by addition of DNA and incubation for 5 min at 37° C., followed by addition of NTPs and incubation for 60 min at 37° C. DNA was removed by addition of 1 μl 5 mM CaCl2 and 2 U DNaseI (Ambion, Inc.), followed by incubation for 90 min at 37° C. RNA was quantified by addition of 100 μl RiboGreen RNA Quantitation Reagent (Invitrogen, Inc.; 1:500 dilution in Tris-HCl, pH 8.0, 1 mM EDTA), followed by incubation for 10 min at 25° C., followed by measurement of fluorescence intensity [excitation wavelength=485 nm and emission wavelength=535 nm; QuantaMaster QMI spectrofluorometer (PTI, Inc.)]. IC50 was defined as the concentration of inhibitor resulting in 50% inhibition of RNA polymerase activity.

In assay [2] the target is M tuberculosis RNA polymerase core enzyme + M. tuberculosis σA (Mycobacterium tuberculosis, UniProt P9WGY7+P9WGY9). The experiment in a line: Fluorescence-detected assay of inhibition of Mycobacterium tuberculosis RNA polymerase. It is filed as biochemical. The conditions noted are these: read-out: IC50 Mt RNAP. The method, then: as §1
Fluorescence-detected RNA polymerase assays with M tuberculosis RNA polymerase were performed as in Example 17.1, using reaction mixtures containing (20 μl): 0-100 nM test compound, 75 nM M tuberculosis RNA polymerase core enzyme, 300 nM M. tuberculosis σ^A, 20 nM 384 by DNA fragment containing the bacteriophage T4 N25 promoter, 100 μM ATP, 100 μM GTP, 100 μM UTP, 100 μM CTP, 40 mM Tris-HCl, pH 8.0, 80 mM NaCl, 5 mM MgCl2, 2.5 mM DTT, and 12.7% glycerol. IC50 was defined as the concentration of inhibitor resulting in 50% inhibition of RNA polymerase activity.

Assay [3] concerns the target S. aureus RNA polymerase core enzyme + S. aureus σA (Staphylococcus aureus, UniProt P47768+Q2G0N5). The experiment in a line: Fluorescence-detected assay of inhibition of Staphylococcus aureus RNA polymerase. It is filed as biochemical. The settings on record: read-out: IC50 Sa RNAP. As for the experimental part: as §1
Fluorescence-detected RNA polymerase assays with S. aureus RNA polymerase were performed as in Example 17.1, using reaction mixtures containing (20 μl): 0-100 nM test compound, 75 nM S. aureus RNA polymerase core enzyme, 300 nM S. aureus σ^A, 20 nM 384 by DNA fragment containing the bacteriophage T4 N25 promoter, 100 μM ATP, 100 μM GTP, 100 μM UTP, 100 μM CTP, 40 mM Tris-HCl, pH 8.0, 80 mM NaCl, 5 mM MgCl2, 2.5 mM DTT, and 12.7% glycerol. IC50 was defined as the concentration of inhibitor resulting in 50% inhibition of RNA polymerase activity.

Assay [4] deals with Bacillus anthracis Vollum 1B. Nature of the assay: microbe, parasite or virus in culture. It counts as cell-based. The conditions noted are these: VOLLUM1B, read-out: MIC B. anthracis Vollum-1b.
The test system of assay [5] is Francisella tularensis SCHU4. Nature of the assay: microbe, parasite or virus in culture. It counts as cell-based. The settings on record: SCHU4, read-out: MIC F. tularensis SCHU4.
The test system of a further assay is Burkholderia mallei CHN7. Nature of the assay: microbe, parasite or virus in culture. It is filed as cell-based. The settings on record: CHN7, read-out: MIC B. mallei CHN7.
Assay [6] has as its system Mycobacterium tuberculosis H37Rv. Nature of the assay: MIC, microplate Alamar Blue assay. The settings on record: read-out: MIC M. tuberculosis H37Rv.
In assay [7] the test system is Staphylococcus aureus ATCC 12600. The experiment in a line: MIC, spiral gradient endpoint assay. The conditions noted are these: ATCC12600, 16 h, read-out: MIC S. aureus 12600.
The subject of assay [8] is Enterococcus faecalis ATCC 19433. The experiment in a line: MIC, spiral gradient endpoint assay. The settings on record: ATCC19433, 16 h, read-out: MIC E. faecalis 19433.
Assay [9] has as its system Escherichia coli D21f2tolC. The experiment in a line: MIC, spiral gradient endpoint assay. The conditions noted are these: 16 h, read-out: MIC E. coli D21f2tolC.
In assay [10] the test system is Haemophilus influenzae ATCC 33391. The experiment in a line: MIC, spiral gradient endpoint assay (GC II agar, 5% CO2). The conditions noted are these: ATCC33391, read-out: MIC H. influenzae 33391.
The next assay deals with H. influenzae 49247. The description is as above. The conditions noted are these: Haemophilus influenzae, 49247, read-out: MIC H. influenzae 49247.
For assay [11], the system named is Moraxella catarrhalis ATCC 25238. The assay is described as above. The settings on record: ATCC25238, read-out: MIC M. catarrhalis 25238.

Chain of M tuberculosis RNA polymerase core enzyme + M. tuberculosis σA (P9WGI1 whole entry, the tested form may be a part): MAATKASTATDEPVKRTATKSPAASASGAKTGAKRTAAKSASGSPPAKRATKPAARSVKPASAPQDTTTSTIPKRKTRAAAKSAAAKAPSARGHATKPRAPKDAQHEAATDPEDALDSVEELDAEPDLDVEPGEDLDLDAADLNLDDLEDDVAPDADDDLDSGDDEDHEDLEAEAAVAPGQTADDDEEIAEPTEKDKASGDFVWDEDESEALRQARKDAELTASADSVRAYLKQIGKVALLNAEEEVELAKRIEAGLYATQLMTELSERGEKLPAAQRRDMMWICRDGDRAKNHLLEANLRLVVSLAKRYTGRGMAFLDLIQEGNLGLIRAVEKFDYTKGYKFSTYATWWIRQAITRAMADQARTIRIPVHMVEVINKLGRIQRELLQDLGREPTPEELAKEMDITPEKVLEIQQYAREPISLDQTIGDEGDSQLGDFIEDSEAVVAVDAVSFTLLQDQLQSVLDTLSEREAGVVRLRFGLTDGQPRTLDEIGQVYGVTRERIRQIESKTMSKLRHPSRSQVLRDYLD
Chain of M tuberculosis RNA polymerase core enzyme + M. tuberculosis σA (P9WGY5 whole entry, further chain, the tested form may be a part): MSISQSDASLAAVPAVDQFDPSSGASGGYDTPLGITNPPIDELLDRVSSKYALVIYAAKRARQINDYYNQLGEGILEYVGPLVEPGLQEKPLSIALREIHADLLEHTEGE
Chain of M tuberculosis RNA polymerase core enzyme + M. tuberculosis σA (P9WGZ1 whole entry, further chain, the tested form may be a part): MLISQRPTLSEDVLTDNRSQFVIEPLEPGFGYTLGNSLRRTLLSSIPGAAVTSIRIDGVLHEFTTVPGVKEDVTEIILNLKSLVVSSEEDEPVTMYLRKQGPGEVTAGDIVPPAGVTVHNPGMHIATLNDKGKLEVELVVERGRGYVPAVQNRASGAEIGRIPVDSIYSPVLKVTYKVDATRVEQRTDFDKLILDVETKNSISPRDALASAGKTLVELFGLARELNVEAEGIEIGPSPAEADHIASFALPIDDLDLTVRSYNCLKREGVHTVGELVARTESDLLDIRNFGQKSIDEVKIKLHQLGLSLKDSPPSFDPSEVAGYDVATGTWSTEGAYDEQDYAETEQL
Chain of M tuberculosis RNA polymerase core enzyme + M. tuberculosis σA (P9WGY7 whole entry, the tested form may be a part): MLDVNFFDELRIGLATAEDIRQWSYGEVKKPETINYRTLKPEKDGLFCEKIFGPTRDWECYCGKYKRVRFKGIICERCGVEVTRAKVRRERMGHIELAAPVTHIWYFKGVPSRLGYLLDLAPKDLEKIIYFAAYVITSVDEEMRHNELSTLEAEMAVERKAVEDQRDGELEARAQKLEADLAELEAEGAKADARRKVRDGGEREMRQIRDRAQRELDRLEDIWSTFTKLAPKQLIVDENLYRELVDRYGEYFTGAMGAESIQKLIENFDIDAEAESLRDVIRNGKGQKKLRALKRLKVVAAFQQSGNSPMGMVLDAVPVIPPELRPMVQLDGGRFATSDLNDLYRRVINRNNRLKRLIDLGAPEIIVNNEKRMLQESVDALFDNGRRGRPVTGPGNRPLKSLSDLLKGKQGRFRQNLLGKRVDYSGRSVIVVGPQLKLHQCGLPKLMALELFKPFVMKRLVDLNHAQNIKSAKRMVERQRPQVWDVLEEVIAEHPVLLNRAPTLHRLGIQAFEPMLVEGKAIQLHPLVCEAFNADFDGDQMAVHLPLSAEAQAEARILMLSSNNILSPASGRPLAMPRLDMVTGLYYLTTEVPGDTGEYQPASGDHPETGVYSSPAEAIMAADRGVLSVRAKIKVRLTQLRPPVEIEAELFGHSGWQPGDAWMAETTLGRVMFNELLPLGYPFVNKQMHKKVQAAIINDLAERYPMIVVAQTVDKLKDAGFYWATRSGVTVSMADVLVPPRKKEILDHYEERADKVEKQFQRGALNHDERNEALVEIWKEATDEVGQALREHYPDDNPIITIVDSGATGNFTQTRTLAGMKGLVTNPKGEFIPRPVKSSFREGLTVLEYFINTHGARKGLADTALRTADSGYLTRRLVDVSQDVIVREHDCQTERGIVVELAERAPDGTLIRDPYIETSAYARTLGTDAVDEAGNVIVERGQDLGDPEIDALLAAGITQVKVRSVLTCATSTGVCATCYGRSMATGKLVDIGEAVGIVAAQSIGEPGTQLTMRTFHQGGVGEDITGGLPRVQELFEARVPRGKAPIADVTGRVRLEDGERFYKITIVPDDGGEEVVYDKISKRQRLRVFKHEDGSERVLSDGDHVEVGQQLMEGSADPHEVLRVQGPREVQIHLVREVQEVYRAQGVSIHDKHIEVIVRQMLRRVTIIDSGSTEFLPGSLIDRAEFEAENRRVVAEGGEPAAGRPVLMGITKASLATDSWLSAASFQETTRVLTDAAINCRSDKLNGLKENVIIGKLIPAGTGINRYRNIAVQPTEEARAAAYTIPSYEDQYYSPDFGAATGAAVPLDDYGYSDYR
Chain of M tuberculosis RNA polymerase core enzyme + M. tuberculosis σA (P9WGY9 whole entry, the tested form may be a part): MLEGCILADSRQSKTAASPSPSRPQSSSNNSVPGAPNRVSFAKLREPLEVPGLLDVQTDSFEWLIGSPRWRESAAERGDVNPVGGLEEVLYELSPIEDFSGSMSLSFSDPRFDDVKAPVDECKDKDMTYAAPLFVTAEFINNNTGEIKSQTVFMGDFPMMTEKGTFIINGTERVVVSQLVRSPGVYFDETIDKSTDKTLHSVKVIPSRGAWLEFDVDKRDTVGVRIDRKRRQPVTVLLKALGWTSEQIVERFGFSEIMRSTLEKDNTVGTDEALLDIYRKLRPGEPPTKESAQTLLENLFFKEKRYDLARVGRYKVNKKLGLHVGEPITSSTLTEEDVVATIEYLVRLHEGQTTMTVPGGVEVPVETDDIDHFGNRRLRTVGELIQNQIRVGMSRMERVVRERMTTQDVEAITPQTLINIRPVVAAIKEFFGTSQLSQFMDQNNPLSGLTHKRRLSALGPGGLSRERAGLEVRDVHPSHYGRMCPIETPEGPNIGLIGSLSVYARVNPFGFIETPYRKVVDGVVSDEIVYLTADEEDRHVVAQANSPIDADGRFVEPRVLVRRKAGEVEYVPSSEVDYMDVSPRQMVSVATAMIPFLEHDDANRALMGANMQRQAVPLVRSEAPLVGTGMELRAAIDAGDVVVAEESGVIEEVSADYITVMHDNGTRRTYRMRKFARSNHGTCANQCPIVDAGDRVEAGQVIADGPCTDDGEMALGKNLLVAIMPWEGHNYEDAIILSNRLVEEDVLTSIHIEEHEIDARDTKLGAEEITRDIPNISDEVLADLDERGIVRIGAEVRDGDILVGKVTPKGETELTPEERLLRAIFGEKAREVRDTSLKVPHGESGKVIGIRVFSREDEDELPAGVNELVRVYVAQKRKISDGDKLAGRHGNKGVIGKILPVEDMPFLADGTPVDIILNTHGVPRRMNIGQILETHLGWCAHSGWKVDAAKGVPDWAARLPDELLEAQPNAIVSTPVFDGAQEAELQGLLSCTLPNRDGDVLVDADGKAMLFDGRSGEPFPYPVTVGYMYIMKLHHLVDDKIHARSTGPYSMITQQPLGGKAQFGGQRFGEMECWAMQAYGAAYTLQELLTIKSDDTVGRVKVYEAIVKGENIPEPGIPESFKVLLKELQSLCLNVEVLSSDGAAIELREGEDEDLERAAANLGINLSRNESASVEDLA

By IC50 is commonly meant the concentration at which inhibition is half-maximal. On to `COc1ccccc1CCC(=O)c1c(O)cc(O)cc1O` [OMTK14, 3-(2-methoxyphenyl)propanoyl-phloroglucinol], for which the results for the IC50 in assay [1], in assay [2] and in assay [3] were 2.7 µM, 9.9 µM and 7.2 µM, respectively. Moreover, the MIC is 25 µg/mL (≈ 86.7 µM) in assay [4]; 12.5 µg/mL (≈ 43.4 µM) in assay [5]; above 50 µg/mL in the assay on Burkholderia mallei CHN7; above 50 µg/mL in [6]; above 40 µg/mL in assay [7]; above 40 µg/mL in [8]. The MIC in assay [9] is 12 µg/mL (≈ 41.6 µM); in assay [10] it was above 40 µg/mL; in the assay with H. influenzae 49247, above 40 µg/mL; in [11], above 40 µg/mL.
